Data: ChEMBL document CHEMBL1128162, “Synthesis and binding properties of myo-inositol 4,5,6-tris(phosphate) an analogue of myo-inositol 1,4,5-tris(phosphate). Correlation with the ionization state of the molecules” (Bioorg Med Chem Lett, 1995)
pIC50: −log10 of the molar value.

Experiments:
[1] = target: Inositol 1,4,5-trisphosphate receptor (Homo sapiens, UniProt Q14571+Q14573+Q14643); assay: Binding affinity against Ins(4,5)P2 receptor prepared from purified guinea pig hepatocytes; parameters: species or system Cavia porcellus; conditions: hepatocyte
[2] = Binding affinity against Ins(1,4,5)P3 receptor prepared from purified rat brain cerebellum; format: tissue-based
[3] = Binding affinity against Ins(4,5,6)P3 receptor prepared from purified rat brain cerebellum; format: tissue-based

For `O=P(O)(O)O[C@@H]1[C@@H](O)[C@H](O)[C@H](O)[C@H](O)[C@H]1OP(=O)(O)O`, the IC50 [1] was 50 µM.
With `O=P(O)(O)O[C@@H]1[C@H](O)[C@H](O)[C@@H](OP(=O)(O)O)[C@H](OP(=O)(O)O)[C@H]1O` [INS(1,4,5)P3] the pIC50 [2] was 8.00.
For `O=P(O)(O)O[C@H]1[C@H](OP(=O)(O)O)[C@@H](O)[C@@H](O)[C@@H](O)[C@@H]1OP(=O)(O)O`, the pIC50 [3] was 5.03.
